pEC50, pKd: −log10 of the molar value. Where two headings read alike, the source gives them in different places.
Experiments:
[1] = cSCC tumour pharmacokinetics after intra-tumoural injection (LC/MS/MS); assay type: in vivo, mouse; settings: for concentration at 1 h / concentration at 6 h / concentration at 18 h: K14-HPV38-E6/E7, mouse, in vivo
Description: Tumour processing: The whole tumour was removed from the mouse. The weight of the tumour was recorded and tumour was placed into an appropriate cryovial on dry ice then transferred to a −80° C. freezer. 3 tumours per time point were assessed.
Calibration standards and quality control samples were prepared by adding 2.5 μL of stock solutions of test compound of different concentrations into 25 μL of naive mouse blood or skin homogenates. Control samples were prepared by spiking 2.5 μL of water or acetonitrile into 25 μL of naïve mouse blood or skin homogenates. Tumour samples were homogenised in 1 mL of PBS then transferred into polypropylene Eppendorf tubes. 100 μL of 0.1 M zinc sulfate was added into the tubes, vortexed for 10 sec, and 250 μL of HPLC-grade acetonitrile containing internal standard (pimecrolimus) was added, vortexed for 2 min, and centrifuged for 3 min at 800×g. 20-40 μL of the supernatant was analysed by LCMS/MS. Instrument: Acquity UPLC, Waters. Column: Acquity BEH C18 100×2.1 mm, 1.7 micron; Mobile phase A: methanol; Mobile phase B: 5 mM ammonium acetate with 0.1% formic acid; Mobile phase gradient details: T=0 min (10% A, 90% B); T=0.01 min (10% A, 90% B); gradient to T=1.5 min (95% A, 5% B); T=3.2 min (95% A, 5% B). Flow rate: 0.3 mL/min, run time: 4.5 min; Ionisation mode: Electrospray ionisation (positive).

[2] = molecular target: FKBP12 enzyme (Homo sapiens, UniProt P62942); experiment: TR-FRET assay, competition for tacrolimus (FK506) binding to FKBP12; settings: 8-point dilution 0.001 nM to 10 μM, 30 min room temperature
Description: The FKBP12 enzyme used in the assay is tagged with a polyhistidine sequence. An anti-6xHis antibody, labelled with a fluorescent donor, F(d), binds the tagged enzyme. The enzyme ligand, FK506 is tagged with a fluorescent acceptor, F(a) and binds the enzyme. […] In the presence of a test inhibitor which competes for FK506, the complex is disrupt& and is no longer in close proximity, resulting in emission at wavelength A due to the F(d). […] The inhibitors were added to the master mix in the assay plate containing the enzyme/antibody/ligand complex, with a final detergent concentration of 0.005%. The reaction was incubated for 30 min at room temperature and then read on a SpectraMax M5 (Molecular Devices) at wavelengths A (615 nm) and B (665 nm). The ratio between light emission (wavelength B/A) is calculated and the blank subtracted values were plotted against the inhibitor concentration in Logio molar and fitted using one site Ki non-linear regression to determine the Kd of the bound test inhibitor.

[3] = test system: human T cells; experiment: Human T cell proliferation assay (PBMCs, anti-CD3, CellTiter-Glo); assay type: cell-based
Description: Cyclosporine A 1 mg/mL stock (CsA—Sigma) was dissolved in DMSO, Rapamycin 5 mg/mL stock (LC Labs) was dissolved in ethanol.
Under sterile conditions, a 96 well flat bottom plate with white opaque walls (Perkin Elmer) was coated with 10 μg per well of purified human anti-CD3 antibody (clone OKT-3; Biolegend) in a volume of 50 μL per well in sterile PBS. The plate was covered in parafilm and incubated overnight at 4° C. Just prior to addition of Peripheral Blood Mononuclear Cells (PBMCs), the antibody solution was removed and discarded using a multichannel pipette. Wells were washed by adding 200 μL sterile PBS to each well and incubating for 2 min. PBS wash solution was removed and discarded following incubation. The wash step was repeated once, for a total of two PBS washes.
20 mL of blood from a consenting healthy volunteer was collected into lithium heparin vacuette containers (Greiner Bio-One). Under sterile conditions, blood from each container was pooled into a single tube and mixed thoroughly with 20 mL FACS buffer (2% FBS in 1×PBS). 15 mL Ficoll-Paque (GE Healthcare) was added to two 50 mL Falcon tubes, before 20 mL of whole blood/FACS buffer mixture was carefully and slowly dispensed on top of the Ficoll layer. Tubes were centrifuged at 800 g for 20 min at room temperature with the brake off. After centrifugation, the resulting PBMC layer between the plasma and Ficoll layers was carefully removed and transferred to a new 50 mL Falcon tube. Tubes were topped up to 45 mL with FACS buffer, then centrifuged at 500 g for 15 min. Supernatant was carefully removed without disturbing cell pellet, then PBMCs from both tubes were pooled. 30 mL of pre-warmed complete RPMI media [RPMI 1640 (Gibco), 10% heat inactivated FBS (Gibco), 1× Penicillin/Streptomycin/L-Glutamine (Gibco), 100 μM 2-Mercaptoethanol (Sigma)] was added to PBMCs, before centrifugation at 500 g for 15 min at room temperature. Supernatant was removed carefully without disturbing cell pellet. PBMCs were resuspended in 1 mL complete RPMI media.
PBMCs were counted manually using a haemocytometer and cell concentration was adjusted to 1.5×10^6 cells/mL with complete RPMI media. 50 μL of cell suspension was added to appropriate wells of the 96 well flat bottom plate with white opaque walls pre-coated in human anti-CD3. The final number of cells per well was 7.5×10^4.
Cells were incubated in a humidified incubator at 37° C. with 5% CO2 for 1 hour before Compound 1 (or vehicle only) was diluted in complete RPMI medium and added to the appropriate wells at the concentration required. The final volume in all wells was 100 μL. Cells were incubated for 5 days in a humidified incubator at 37° C. with 5% CO2.
CellTiter-Glo Luminescent Cell Viability Assay (Promega) was performed to determine the level of metabolically active cells per well based on ATP quantification. CellTiter-Glo Buffer and lyophilised CellTiter-Glo Substrate were equilibrated to room temperature. CellTiter-Glo Substrate was reconstituted with 10 mL CellTiter-Glo Buffer and gently vortexed for 1 minute to create the CellTiter-Glo Reagent. The 96 well plate containing PBMCs was equilibrated to room temperature for 30 min. Once at room temperature, 100 μL of CellTiter-Glo Reagent was dispensed using a multichannel pipette into each well containing 100 μL cells and media. The plate was mixed for 2 min at room temperature on an orbital shaker to induce cell lysis. The plate was then incubated for 10 min at room temperature in the dark to stabilize the luminescence signal. Luminescence signal was recorded using a CLARIOstar Plus plate reader (BMG Labtech).
PBMCs were stimulated with human anti-CD3 antibody and T cells were allowed to proliferate at 37° C. with 5% CO2 in a humidified incubator for 5 days. Proliferation/viability was assessed via a CellTiter-Glo Luminescent Cell Viability Assay and luminescence was read using a CLARIOstar Plus plate reader. […]

[4] = test system: T lymphocytes; settings: cited from earlier work
[5] = test system: skin tumours; settings: 104 weeks, doses up to 260× of the recommended human dose (Protopic prescribing information); cited from earlier work
[6] = test system: chemically (TPA+DMBA) induced tumour formation; settings: topical application, mouse model (Jiang et al. 1993); cited from earlier work

Sequence of FKBP12 enzyme (P62942 whole entry, species assumed): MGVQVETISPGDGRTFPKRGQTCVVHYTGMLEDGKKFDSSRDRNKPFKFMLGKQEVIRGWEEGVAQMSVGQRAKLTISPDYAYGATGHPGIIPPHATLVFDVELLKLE

Row | Compound | concentration at 1 h ([1]; 1 h post final dose, SCC tumours, read-out: Average Concentration Compound 1 in tumour) | concentration at 6 h ([1]; 6 h post final dose, SCC tumours, read-out: Average Concentration Compound 1 in tumour) | concentration at 18 h ([1]; 18 h post final dose, SCC tumours, read-out: Average Concentration Compound 1 in tumour) | average tumour concentration of Compound 1 relative to that of tacrolimus ([1]; over 18 h) | pKd [2] | rescue of T cell proliferation in the presence of rapamycin ([3]; 0.3 μM, 1 μM and 3 μM Compound 1 with 1 ng/mL rapamycin, 5 days) | rescue of T cell proliferation in the presence of cyclosporine A ([3]; 0.3 μM, 1 μM and 3 μM Compound 1 with 50 ng/mL cyclosporine A, 5 days) | rescue of T cell proliferation in the presence of tacrolimus ([3]; 1 μM and 3 μM Compound 1 with 0.6 ng/mL tacrolimus, 5 days) | T cell proliferation/viability with Compound 1 alone ([3]; no tacrolimus, 5 days) | pEC50 ([4]; cultured with tacrolimus 1.2 nM, C57B1/6 mouse spleen T lymphocytes, read-out: ED50, concentration required to inhibit tritiated thymidine uptake of T cells by 50%) | concentration at 1 h [1] | concentration at 6 h [1] | concentration at 18 h [1] | association of skin tumours with daily topical doses [5] | T cell proliferation compared to the vehicle control ([3]; 0.6 ng/mL tacrolimus, anti-CD3, 5 days) | reduction of chemically (TPA+DMBA) induced tumour formation [6] | inhibition of T cell proliferation ([4]; tacrolimus 1.2 nM)
1 | CC[C@@H]1/C=C(\C)[C@@H](O)[C@H](C)C[C@H](OC)[C@H]2O[C@@](O)(C(=O)C(=O)N3CCCC[C@H]3C(=O)O[C@H](/C(C)=C/[C@@H]3CC[C@@H](O)[C@H](OC)C3)[C@H](C)[C@@H](O)CC1=O)[C@H](C)C[C@@H]2OC [Compound 1, 17-Ethyl-1,14,20-trihydroxy-12-[2′-(4″-hydroxy-3″-methoxycyclohexyl)-1′-methylvinyl]-23,25-dimethoxy-13,19,21,27-tetramethyl-11,28-dioxa-4-azatricyclo-[22.3.1.0^4,9]octacos-18-ene-2,3,10,16-tetraone] | 165000 ng/g | 148000 ng/g | 168000 ng/g | more than 2000 fold | 8.55 | significantly rescued | unable to rescue | dose dependently and significantly rescued | did not significantly alter | > 4.30 | – | – | – | – | – | – | –
2 | C=CC[C@@H]1/C=C(\C)C[C@H](C)C[C@H](OC)[C@H]2O[C@@](O)(C(=O)C(=O)N3CCCC[C@H]3C(=O)O[C@H](/C(C)=C/[C@@H]3CC[C@@H](O)[C@H](OC)C3)[C@H](C)[C@@H](O)CC1=O)[C@H](C)C[C@@H]2OC [tacrolimus, reference compound] | – | – | – | – | – | – | – | – | – | – | 33 ng/g | 73 ng/g | 52 ng/g | no association | inhibited | 80% | 100%

Source: US20230218589A1, “COMPOUND FOR PREVENTION OR TREATMENT OF A SKIN CANCER OR SKIN PRECANCER” (UNIQUEST PTY LTD, priority 2020, published 2023)
